Laboratory results as given in PubChem BioAssay (NCI).
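Results reflect a 48-hour exposure of cells in 96-well plates to compound at five concentrations. GI50 is the concentration that inhibits growth by half. The concentration for full growth arrest is given as TGI.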

Experiments:
Assay in all cases: NCI anticancer screen, dose series, 48 h
786-0 renal = test system: 786-0 renal
A498 renal = test system: A498 renal
A549 NSCLC = test system: A549 NSCLC
ACHN renal = test system: ACHN renal
BT-549 breast = test system: BT-549 breast
CAKI-1 renal = test system: CAKI-1 renal
CCRF-CEM leukemia = test system: CCRF-CEM leukemia
COLO 205 colon = test system: COLO 205 colon
DU-145 prostate = test system: DU-145 prostate
EKVX NSCLC = test system: EKVX NSCLC
HCC-2998 colon = test system: HCC-2998 colon
HCT-116 colon = test system: HCT-116 colon
HCT-15 colon = test system: HCT-15 colon
HL-60(TB) leukemia = test system: HL-60(TB) leukemia
HOP-62 NSCLC = test system: HOP-62 NSCLC
HOP-92 NSCLC = test system: HOP-92 NSCLC
HS 578T breast = test system: HS 578T breast
HT29 colon = test system: HT29 colon
IGROV1 ovarian = test system: IGROV1 ovarian
K-562 leukemia = test system: K-562 leukemia
KM12 colon = test system: KM12 colon
LOX IMVI melanoma = test system: LOX IMVI melanoma
M14 melanoma = test system: M14 melanoma
MALME-3M melanoma = test system: MALME-3M melanoma
MCF7 breast = test system: MCF7 breast
MDA-MB-231 breast = test system: MDA-MB-231 breast
MDA-MB-435 = test system: MDA-MB-435
MDA-MB-468 breast = test system: MDA-MB-468 breast
MOLT-4 leukemia = test system: MOLT-4 leukemia
NCI-H226 lung = test system: NCI-H226 lung
NCI-H23 lung = test system: NCI-H23 lung
NCI-H460 lung = test system: NCI-H460 lung
NCI-H522 lung = test system: NCI-H522 lung
NCI/ADR-RES ovarian = test system: NCI/ADR-RES ovarian
OVCAR-3 ovarian = test system: OVCAR-3 ovarian
OVCAR-4 ovarian = test system: OVCAR-4 ovarian
OVCAR-5 ovarian = test system: OVCAR-5 ovarian
OVCAR-8 ovarian = test system: OVCAR-8 ovarian
PC-3 prostate = test system: PC-3 prostate
RPMI-8226 leukemia = test system: RPMI-8226 leukemia
RXF 393 renal = test system: RXF 393 renal
SF-268 CNS = test system: SF-268 CNS
SF-295 CNS = test system: SF-295 CNS
SF-539 CNS = test system: SF-539 CNS
SK-MEL-2 melanoma = test system: SK-MEL-2 melanoma
SK-MEL-28 melanoma = test system: SK-MEL-28 melanoma
SK-MEL-5 melanoma = test system: SK-MEL-5 melanoma
SK-OV-3 ovarian = test system: SK-OV-3 ovarian
SN12C renal = test system: SN12C renal
SNB-19 CNS = test system: SNB-19 CNS
SNB-75 CNS = test system: SNB-75 CNS
SR leukemia = test system: SR leukemia
SW-620 colon = test system: SW-620 colon
T-47D breast = test system: T-47D breast
TK-10 renal = test system: TK-10 renal
U251 CNS = test system: U251 CNS
UACC-257 melanoma = test system: UACC-257 melanoma
UACC-62 melanoma = test system: UACC-62 melanoma
UO-31 renal = test system: UO-31 renal

## CN1CCN(Cc2ccc(NC(=O)c3cncc(C#Cc4cnc5ccc(N[C@H]6CCOC6)nn45)c3)cc2C(F)(F)F)CC1
786-0 renal
  GI50: 268 nM
  TGI: 959 nM
A498 renal
  GI50: 278 nM
  TGI: 490 nM
A549 NSCLC
  GI50: 175 nM
  TGI: 643 nM
ACHN renal
  GI50: 278 nM
  TGI: 980 nM
BT-549 breast
  GI50: 291 nM
  TGI: 915 nM
CAKI-1 renal
  GI50: 148 nM
  TGI: 511 nM
CCRF-CEM leukemia
  GI50: 28.3 nM
  TGI: 687 nM
COLO 205 colon
  GI50: 88 nM
  TGI: 197 nM
DU-145 prostate
  GI50: 170 nM
  TGI: 716 nM
EKVX NSCLC
  GI50: 128 nM
  TGI: 696 nM
HCC-2998 colon
  GI50: 181 nM
  TGI: 866 nM
HCT-116 colon
  GI50: 37 nM
  TGI: 290 nM
HCT-15 colon
  GI50: 321 nM
  TGI: 1290 nM
HL-60(TB) leukemia
  GI50: 43.7 nM
  TGI: 704 nM
HOP-62 NSCLC
  GI50: 172 nM
  TGI: 677 nM
HOP-92 NSCLC
  GI50: 13.7 nM
  TGI: 82.2 nM
HS 578T breast
  GI50: 62.1 nM
  TGI: 393 nM
HT29 colon
  GI50: 90.3 nM
  TGI: 512 nM
IGROV1 ovarian
  GI50: 136 nM
  TGI: 394 nM
K-562 leukemia
  GI50: 6.9 nM
  TGI: 930 nM
KM12 colon
  GI50: 6.9 nM
  TGI: 526 nM
LOX IMVI melanoma
  GI50: 56.6 nM
  TGI: 153 nM
M14 melanoma
  GI50: 103 nM
  TGI: 315 nM
MALME-3M melanoma
  GI50: 98.2 nM
  TGI: 323 nM
MCF7 breast
  GI50: 46.1 nM
  TGI: 274 nM
MDA-MB-231 breast
  GI50: 41.4 nM
  TGI: 231 nM
MDA-MB-435
  GI50: 95.8 nM
  TGI: 813 nM
MDA-MB-468 breast
  GI50: 90.3 nM
  TGI: 211 nM
MOLT-4 leukemia
  GI50: 46.8 nM
  TGI: 866 nM
NCI-H226 lung
  GI50: 14.7 nM
  TGI: 218 nM
NCI-H23 lung
  GI50: 81.4 nM
  TGI: 249 nM
NCI-H460 lung
  GI50: 144 nM
  TGI: 828 nM
NCI-H522 lung
  GI50: 103 nM
  TGI: 249 nM
NCI/ADR-RES ovarian
  GI50: 5820 nM
  TGI: 25300 nM
OVCAR-3 ovarian
  GI50: 183 nM
  TGI: 1030 nM
OVCAR-4 ovarian
  GI50: 260 nM
  TGI: 2130 nM
OVCAR-5 ovarian
  GI50: 142 nM
  TGI: 536 nM
OVCAR-8 ovarian
  GI50: 252 nM
  TGI: 1130 nM
PC-3 prostate
  GI50: 185 nM
  TGI: 3690 nM
RPMI-8226 leukemia
  GI50: 237 nM
  TGI: 1230 nM
RXF 393 renal
  GI50: 108 nM
  TGI: 274 nM
SF-268 CNS
  GI50: 180 nM
  TGI: 917 nM
SF-295 CNS
  GI50: 291 nM
  TGI: 1260 nM
SF-539 CNS
  GI50: 21 nM
  TGI: 102 nM
SK-MEL-2 melanoma
  GI50: 152 nM
  TGI: 350 nM
SK-MEL-28 melanoma
  GI50: 235 nM
  TGI: 996 nM
SK-MEL-5 melanoma
  GI50: 487 nM
  TGI: 1390 nM
SK-OV-3 ovarian
  GI50: 446 nM
  TGI: 2010 nM
SN12C renal
  GI50: 33.7 nM
  TGI: 398 nM
SNB-19 CNS
  GI50: 249 nM
  TGI: 1120 nM
SNB-75 CNS
  GI50: 144 nM
  TGI: 330 nM
SR leukemia
  GI50: 95 nM
  TGI: 9330 nM
SW-620 colon
  GI50: 72.3 nM
  TGI: 367 nM
T-47D breast
  GI50: 704 nM
  TGI: 5150 nM
TK-10 renal
  GI50: 254 nM
  TGI: 828 nM
U251 CNS
  GI50: 219 nM
  TGI: 1020 nM
UACC-257 melanoma
  GI50: 483 nM
  TGI: 1990 nM
UACC-62 melanoma
  GI50: 151 nM
  TGI: 801 nM
UO-31 renal
  GI50: 962 nM
  TGI: 2290 nM
